Data on 21 molecules can be found in US9055743B2, “Alpha, beta-unsaturated imines” (BAYER INTELLECTUAL PROPERTY GMBH, priority 2010, dated 2015).

Common to all, as to type: in vivo
In assay [1] the test system is caterpillars of the army worm (Spodoptera frugiperda). Nature of the assay: Spodoptera frugiperda test (SPODFR spray treatment). The note with it: 500 g/ha, spray, after 7 days; for pest or weed control at 500 g/ha: Spodoptera frugiperda, 168 h, read-out: activity (caterpillars killed). The procedure: Spodoptera frugiperda Test (SPODFR Spray Treatment) Solvents: 78.0 parts by weight of acetone • • 1.5 parts by weight of dimethylformamide Emulsifier: 0.5 part by weight of alkylaryl polyglycol ether
(§1) To produce a suitable preparation of active compound, 1 part by weight of active compound is mixed with the stated amounts of solvents and emulsifier, and the concentrate is diluted with emulsifier-containing water to the desired concentration.
Discs of maize leaves (Zea mays) are sprayed with an active compound preparation of the desired concentration and, after drying, populated with caterpillars of the army worm (Spodoptera frugiperda) besetzt.
After 7 days, the activity in % is determined. 100% means that all caterpillars have been killed; 0% means that none of the caterpillars have been killed.

In assay [2] the test system is greenhouse red spider mite (Tetranychus urticae). Nature of the assay: Tetranychus test; OP-resistant (TETRUR spray treatment). Particulars: 500 g/ha, spray, after 6 days; for pest or weed control at 500 g/ha: Tetranychus urticae, 144 h, read-out: activity (spider mites killed). The procedure:
Tetranychus Test; OP-Resistant (TETRUR Spray Treatment) Solvents: 78.0 parts by weight of acetone • • 1.5 parts by weight of dimethylformamide Emulsifier: 0.5 part by weight of alkylaryl polyglycol ether
as §1
Discs of bean leaves (Phaseolus vulgaris) infested by all stages of the greenhouse red spider mite (Tetranychus urticae) are sprayed with an active compound preparation of the desired concentration.
After 6 days, the activity in % is determined. 100% means that all spider mites have been killed; 0% means that none of the spider mites have been killed.

Another assay concerns Aedes aegypti. Nature of the assay: Aedes test (AEDSAE surface treatment). The note with it: for mortality at 100 mg/m2: Aedes aegypti, read-out: activity (mortality in %); for knock-down activity: 100 mg/m^2, two hours after contact, exposition 30 minutes. The procedure:
Aedes Test (AEDSAE Surface Treatment)
To produce a suitable preparation of active compound, the active compound is dissolved in acetone (2 mg/ml). The active compound preparation is pipetted onto a glazed tile and, after drying, adult mosquitoes of the species Aedes aegypti are placed onto the treated tile. The exposition time is 30 minutes.
(§2) Two hours after contact to the treated surface, the knock-down proportion of the test animals in % is determined.
24 hours after contact to the treated surface, the mortality in % is determined Here, 100% means that all mosquitoes have been killed; 0% means that none of the mosquitoes has been killed.

For assay [3], the system named is Anopheles gambiae (homocygus kdr). As to the kind of experiment: Anopheles test (ANPHGB surface treatment). The note with it: for knock-down activity: 100 mg/m^2, two hours after contact, exposition 30 minutes. The method, then: Anopheles Test (ANPHGB Surface Treatment) Solvent: Acetone
To produce a suitable preparation of active compound, the active compound is dissolved in acetone (2 mg/ml). The active compound preparation is pipetted onto a glazed tile and, after drying, adult mosquitoes of the species Anopheles gambiae (homocygus kdr) are placed onto the treated tile. The exposition time is 30 minutes.
as §2
24 hours after contact to the treated surface, the mortality in % is determined. Here, 100% means that all mosquitoes have been killed; 0% means that none of the mosquitoes has been killed.

The subject of assay [4] is cat fleas (Ctenocephalides felis, fully sensitive laboratory strain). Nature of the assay: Contact test against fleas in-vitro (CTECFE contact). The note with it: 500 g/ha, after 48 h. The method, then:
Contact Test Against Fleas In-Vitro (CTECFE Contact)
An amount of 0.9 mg of active compound is weighed out, and 1 ml of acetone is added.
Of this acetone solution, either […] are transferred directly into roll-necked test tubes or an aliquot is diluted with 4 parts of acetone 1:5. For its part, 250 μl of this dilution are pipetted into roll-necked test tubes, or the dilution is diluted further, etc., until the desired number of dilution steps is reached.
The roll-necked test tubes containing the solution of the active compound in acetone are immediately coated in a fume cupboard by 2 h of swing rotation at 30 rpm. After evaporation of the solvent, the active compound contained in the acetone gives, at the highest concentration tested, an active compound content of 500 g/ha (or 500 μg/dm^2) on the surface of the test tube.
10-20 Adult cat fleas (Ctenocephalides felis, fully sensitive laboratory strain) anesthetized with CO2 are transferred into the test tubes prepared in this manner, and the test tubes are closed with a plastic roll-necked lid provided with fine holes.
The test tubes are stored vertically at room temperature and humidity for 24 or 48 h. After 24 and 48 h, the activity of the active compound applied is determined by comparison with an acetone-treated control. Here, an observed normal activity for all fleas corresponds to 0% activity, a strongly restricted or uncoordinated (knock-down) movement or death of all fleas corresponds to 100% activity.

Assay [5] has as its system green peach aphid (Myzus persicae). As to the kind of experiment: Myzus test (MYZUPE spray treatment). Particulars: 500 g/ha, spray, after 6 days. The method, then:
Myzus Test (MYZUPE Spray Treatment) Solvents: 78 parts by weight of acetone • • 1.5 parts by weight of dimethylformamide Emulsifier: 0.5 part by weight of alkylaryl polyglycol ether
as §1
Discs of Chinese cabbage leaves (Brassica pekinensis) which are infested by all stages of the green peach aphid (Myzus persicae) are sprayed with an active compound preparation of the desired concentration.
After 6 days, the activity in % is determined. 100% means that all aphids have been killed; 0% means that none of the aphids have been killed.

In assay [6] the test system is larvae of the mustard beetle (Phaedon cochleariae). As to the kind of experiment: Phaedon test (PHAECO spray treatment). The note with it: 500 g/ha, spray, after 7 days. The method, then:
Phaedon Test ([…] Spray Treatment) Solvents: 78.0 parts by weight of acetone • • 1.5 parts by weight of dimethylformamide Emulsifier: 0.5 part by weight of alkylaryl polyglycol ether To produce a suitable preparation of active compound, 1 part by weight of active compound is mixed with the stated amounts of solvents and emulsifiers, and the concentrate is diluted with emulsifier-containing water to the desired concentration. Discs of Chinese cabbage leaves (Brassica pekinensis) are sprayed with an active compound preparation of the desired concentration and, after drying, populated with larvae of the mustard beetle (Phaedon cochleariae).

Each structure is given as a SMILES string.

Turning to `CCOC1=CC(=Nc2ccc(C)cc2)C(=CSc2ccc(F)cc2F)CC1` [Example 1-98, N-(6-{[(2,4-Difluorophenyl)sulphanyl]methylene}-3-ethoxycyclohex-2-en-1-ylidene)-4-methylaniline], the pest or weed control at 500 g/ha in assay [1] stood at 83%; in assay [2], 100%. Also, the mortality (in general, the share of the test organisms that died) at 100 mg/m2 with Aedes aegypti worked out at 80%.

With `Cc1ccc(N=C2C(=CSc3ccc(F)cc3)COc3cccc(C)c32)cc1` [Example 1-86], the knock-down activity is on record as 95% with Aedes aegypti and 100% in assay [3].

In the case of `Cc1ccc(N=C2C(=CSc3ccc(F)cc3)CCc3ccc(F)cc32)cc1` [Example 1-15], the “activity (caterpillars killed)” value in assay [1] was determined as 100%. In assay [4], the “activity against cat fleas” value is reported as 100%. Besides, the “activity (aphids killed)” value in assay [5] is reported as 100%. Moreover, the “activity (spider mites killed)” value in assay [2] turned out to be 100%. Also, in assay [6], the “activity (beetle larvae killed)” value is 100%.

In the case of `Cc1ccc(N=C2C(=CSc3ccc(F)cc3)CSc3cc(C)ccc32)cc1` [Example 1-76], the knock-down activity in the assay with Aedes aegypti worked out at 80%; in assay [3], 100%.

In the case of `C(Sc1ccccc1)=C1CCc2ccccc2C1=Nc1ccccc1` [Example 1-8], in assay [1], the “activity (caterpillars killed)” value amounted to 100%. Also, the “activity against cat fleas” value in assay [4] is reported as 100%. The “activity (spider mites killed)” value in assay [2] came to 100%. In addition, the “activity (beetle larvae killed)” value in assay [6] worked out at 100%. Besides, the knock-down activity in assay [3] turned out to be 85%.

Turning to `Cc1cccc(N=C2C(=CSc3ccc(F)cc3)CCc3ccccc32)c1` [Example 1-88], the “activity (caterpillars killed)” value in assay [1] is 100%. The “activity (aphids killed)” value in assay [5] worked out at 100%. In assay [2], the “activity (spider mites killed)” value stood at 100%. Moreover, the “activity (beetle larvae killed)” value in assay [6] is reported as 100%. Also, the knock-down activity in the assay with Aedes aegypti is listed as 85%; in assay [3], 100%.

Turning to `Cc1ccc(N=C2C(=CSc3ccc(F)cc3)CCc3cc(Cl)ccc32)cc1` [Example 1-47], the “activity (caterpillars killed)” value in assay [1] was determined as 100%. The “activity against cat fleas” value in assay [4] is on record as 100%. In addition, the “activity (aphids killed)” value in assay [5] was 100%. Further, the “activity (spider mites killed)” value in assay [2] is 100%. Moreover, the “activity (beetle larvae killed)” value in assay [6] is on record as 100%. This molecule registered a knock-down activity in assay [3] of 85%.

As to `Cc1ccc(N=C2C(=CSc3ccc(F)cc3)CC(C)c3ccccc32)cc1` (centres unmarked) [Example 1-14], the “activity (caterpillars killed)” value in assay [1] was determined as 100%. Further, the “activity against cat fleas” value in assay [4] is 100%. The “activity (aphids killed)” value in assay [5] worked out at 100%. Moreover, the “activity (spider mites killed)” value in assay [2] was 100%. The “activity (beetle larvae killed)” value in assay [6] is 100%. Further, the knock-down activity in assay [3] is listed as 95%.

Regarding `Cc1ccc(N=C2C(=CSc3ccc(F)cc3)COc3ccc(F)cc32)cc1` [Example 1-23], in assay [1], the “activity (caterpillars killed)” value was 100%. The “activity against cat fleas” value in assay [4] came to 100%. Moreover, the “activity (beetle larvae killed)” value in assay [6] turned out to be 100%.

Regarding `Cc1ccc(N=C2c3ccccc3CCC2C(Sc2ccccc2)Sc2ccccc2)cc1` (centres unmarked) [Example 2-1], the pest or weed control at 500 g/ha in assay [1] is 100%; in assay [5] (Myzus persicae, 144 h, read-out: activity (aphids killed)), 90%; in assay [2], 80%; in assay [6] (Phaedon cochleariae, 168 h, read-out: activity (beetle larvae killed)), 100%. The knock-down activity (in the assay with Aedes aegypti; in assay [3]) was 100% in each case. The mortality at 100 mg/m2 in the assay on Aedes aegypti is 100%; in assay [3] (Anopheles gambiae, read-out: activity (mortality in %)) it was 100%.

In the case of `Cc1ccc(N=C2C=CC(C)(C)CC2=CSc2ccc(F)cc2)cc1` (mixture of isomers) [Example 1-44], the “activity (caterpillars killed)” value in assay [1] worked out at 83%. Further, the “activity (spider mites killed)” value in assay [2] was found to be 90%. Also, the knock-down activity is on record as 90% in the assay with Aedes aegypti and 100% in assay [3].

`Cc1ccc(N=C2C(=CSc3ccc(F)cc3)CCc3nc(Cl)ccc32)cc1` [Example 1-54]: the “activity (caterpillars killed)” value in assay [1] is listed as 100%. The “activity against cat fleas” value in assay [4] came to 100%. Besides, the “activity (aphids killed)” value in assay [5] worked out at 80%. Also, the “activity (spider mites killed)” value in assay [2] is recorded as 80%. For the same molecule, the “activity (beetle larvae killed)” value in assay [6] was 100%.

For the molecule `COc1ccc2c(c1)C(=Nc1ccc(C)cc1)C(=CSc1ccc(F)cc1)CC2` [Example 1-32], in assay [1], the “activity (caterpillars killed)” value stood at 100%. In addition, the “activity against cat fleas” value in assay [4] is reported as 100%. Further, the “activity (spider mites killed)” value in assay [2] stood at 100%.

Consider `Cc1ccc(N=C2C(=CSc3ccc(F)cc3)C(C)c3cc(C)ccc32)cc1` (mixture of isomers) [Example 1-51], for which the “activity (caterpillars killed)” value in assay [1] is given as 100%. Moreover, in assay [5], the “activity (aphids killed)” value is 100%. The “activity (beetle larvae killed)” value in assay [6] was 100%. In addition, the knock-down activity in the assay on Aedes aegypti turned out to be 85%; in assay [3], 100%.

In the case of `CCOC1=CC(=CSc2ccc(F)cc2)C(=Nc2ccc(C)cc2)CC1` (mixture of isomers) [Example 1-96], the “activity (aphids killed)” value in assay [5] turned out to be 90%. The “activity (spider mites killed)” value in assay [2] stood at 90%. In the assay with Aedes aegypti, this molecule displayed a knock-down activity of 80%.

As to `Cc1ccc(N=C2C(=CSc3ccccc3F)C3CCC2C3)cc1` (centres unmarked) [Example 1-103], the knock-down activity (in the assay on Aedes aegypti; in assay [3]) was 100% each time.

As to `Cc1ccc(N=C2c3ccccc3OCC2C(Sc2ccc(F)cc2)Sc2ccc(F)cc2)cc1` (centres unmarked) [Example 2-11], the “activity (caterpillars killed)” value in assay [1] was 100%. In addition, the “activity against cat fleas” value in assay [4] was determined as 100%. Besides, the “activity (aphids killed)” value in assay [5] is 100%. The “activity (spider mites killed)” value in assay [2] was 100%. In assay [6], the “activity (beetle larvae killed)” value is recorded as 100%.

For `c1ccc(N=C2c3ccccc3CCC2C(Sc2ccccc2)Sc2ccccc2)cc1` (centres unmarked) [Example 2-2], the knock-down activity (in the assay on Aedes aegypti; in assay [3]) was 100% in each case.

On to `COc1ccc(N=C2C(=CSc3ccccc3)C(C)c3ccccc32)cc1` (mixture of isomers) [Example 1-22], for which, in assay [1], the “activity (caterpillars killed)” value is on record as 100%. For the same molecule, in assay [4], the “activity against cat fleas” value was 100%. The “activity (spider mites killed)” value in assay [2] was 90%.

Take `Cc1ccc(N=C2C(=CSc3cccc(F)c3)C3CCC2C3)cc1` (centres unmarked) [Example 1-102]: the knock-down activity (in the assay with Aedes aegypti; in assay [3]) was 100% in each case.

Regarding `COc1cccc2c1CCC(=CSc1ccc(F)cc1)C2=Nc1ccc(C)cc1` [Example 1-31], the “activity (caterpillars killed)” value in assay [1] turned out to be 100%. In assay [4], the “activity against cat fleas” value stood at 100%. Also, the “activity (spider mites killed)” value in assay [2] is reported as 100%.
